Laboratory results reported in ChEMBL document CHEMBL1201862, “PubChem BioAssay data set” (2004).
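Exposure lasted 48 hours, with cells grown in 96-well plates and compounds tested at five concentrations. GI50 is the concentration that inhibits growth by half.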 Activity calls are given as the source filed them. No stated cut-off is given here; in the data, active = GI50 up to about 1.1 µM and inactive = higher.

Tests used:
Assay in all cases: growth of human tumour cells (NCI), 48 h
SF-268 = test system: SF-268
HOP-92 = test system: HOP-92
OVCAR-5 = test system: OVCAR-5
SK-MEL-2 = test system: SK-MEL-2
IGROV-1 = test system: IGROV-1
SF-295 = test system: SF-295
HOP-62 = test system: HOP-62
Malme-3M = test system: Malme-3M
M14 = test system: M14
U-251 = test system: U-251
NCI-H522 = test system: NCI-H522
NCI-H460 = test system: NCI-H460
UO-31 = test system: UO-31
EKVX = test system: EKVX
SNB-75 = test system: SNB-75
OVCAR-3 = test system: OVCAR-3
DU-145 = test system: DU-145
MDA-N = test system: MDA-N
T47D = test system: T47D

Measured: GI50

NNC(=S)N/N=C(\c1nc2ccc(Cl)cc2nc1O)C(O)c1ccc(Cl)cc1Cl (centres undefined)
inactive: SF-268 > 100 µM | HOP-92 > 100 µM | OVCAR-5 > 100 µM | SK-MEL-2 > 100 µM | IGROV-1 > 100 µM | SF-295 > 100 µM | HOP-62 > 100 µM | Malme-3M > 100 µM | M14 > 100 µM | U-251 > 100 µM | NCI-H522 > 100 µM | NCI-H460 > 100 µM | UO-31 > 100 µM | EKVX > 100 µM | SNB-75 > 100 µM

N#CC(NNC(=O)Cc1ccccc1)c1cccc(O)c1 (centres undefined)
inactive: SF-268 > 100 µM | HOP-92 > 100 µM | OVCAR-5 > 100 µM | SK-MEL-2 > 100 µM | IGROV-1 > 100 µM | SF-295 > 100 µM | HOP-62 > 100 µM | Malme-3M > 100 µM | M14 > 100 µM | U-251 > 100 µM | NCI-H522 > 100 µM | NCI-H460 > 100 µM | UO-31 > 100 µM | SNB-75 > 100 µM

COC(=O)C(=O)C(C(=O)C1=NS(=O)(=O)c2cc(S(N)(=O)=O)c(Cl)cc2N1)c1nc2ccc(C(=O)c3ccccc3)cc2nc1O (centres undefined)
inactive: SF-268 > 100 µM | OVCAR-5 58.7 µM | SK-MEL-2 > 100 µM | IGROV-1 > 100 µM | SF-295 72.4 µM | Malme-3M > 100 µM | M14 > 100 µM | U-251 > 100 µM | NCI-H522 37.2 µM | NCI-H460 > 100 µM | UO-31 79.4 µM | EKVX > 100 µM

c1ccc(-c2[nH]c(-c3ccccc3)c(-c3cnccn3)c2-c2cnccn2)cc1
inactive: SF-268 > 100 µM | OVCAR-3 > 100 µM | HOP-92 > 100 µM | OVCAR-5 > 100 µM | SK-MEL-2 > 100 µM | IGROV-1 > 100 µM | SF-295 > 100 µM | HOP-62 > 100 µM | Malme-3M > 100 µM | M14 > 100 µM | U-251 > 100 µM | NCI-H522 > 100 µM | NCI-H460 > 100 µM | UO-31 > 100 µM | EKVX > 100 µM | SNB-75 31.9 µM

CC1=C(C(=O)Nc2cccc(C(F)(F)F)c2)C(c2ccccc2F)C(C(=O)Nc2cccc(C(F)(F)F)c2)=C(C)N1
inactive: SF-268 6.52 µM | OVCAR-3 4.66 µM | HOP-92 2.8 µM | OVCAR-5 10.5 µM | SK-MEL-2 3.03 µM | IGROV-1 11.3 µM | SF-295 6.52 µM | HOP-62 12.9 µM | Malme-3M 7.08 µM | M14 4.59 µM | U-251 8.69 µM | NCI-H522 4.79 µM | NCI-H460 4.23 µM | UO-31 4.83 µM | EKVX 3.94 µM | SNB-75 9.57 µM

Cn1nc(S(N)(=O)=O)s/c1=N/S(=O)(=O)c1ccc(N)cc1
inactive: SF-268 > 100 µM | OVCAR-3 > 100 µM | HOP-92 > 100 µM | OVCAR-5 > 100 µM | SK-MEL-2 > 100 µM | SF-295 > 100 µM | HOP-62 > 100 µM | Malme-3M > 100 µM | M14 > 100 µM | U-251 > 100 µM | NCI-H460 > 100 µM | UO-31 > 100 µM | DU-145 > 100 µM | EKVX > 100 µM | SNB-75 > 100 µM

COC(=O)C1=C(c2cc(OC)c(OC)c(OC)c2)OC(c2cc(OC)c(OC)c(OC)c2)C1COC(C)=O (centres undefined)
inactive: SF-268 > 100 µM | OVCAR-3 33.7 µM | HOP-92 10.3 µM | OVCAR-5 18.1 µM | IGROV-1 54.1 µM | SF-295 45.2 µM | HOP-62 36.6 µM | Malme-3M > 100 µM | M14 41 µM | U-251 51.6 µM | NCI-H522 16.7 µM | NCI-H460 36.6 µM | UO-31 27.2 µM | EKVX > 100 µM | SNB-75 74.6 µM

O=C(NNC(=O)c1csc(NC(=S)NC2CCCCC2)n1)c1ccccc1
inactive: SF-268 5.66 µM | OVCAR-3 4.33 µM | OVCAR-5 11.9 µM | MDA-N 13.9 µM | SK-MEL-2 22.4 µM | IGROV-1 1.96 µM | SF-295 11 µM | T47D 3.37 µM | HOP-62 14 µM | Malme-3M 15.5 µM | M14 13.5 µM | U-251 3.71 µM | NCI-H522 11.7 µM | UO-31 13.7 µM | DU-145 18.7 µM | EKVX 1.84 µM | SNB-75 83.9 µM

COC(=O)c1ccc(Cc2ccc(C(=O)OC)o2)o1
inactive: SF-268 > 378 µM | OVCAR-3 > 378 µM | HOP-92 > 378 µM | OVCAR-5 > 378 µM | SK-MEL-2 > 378 µM | IGROV-1 > 378 µM | SF-295 > 378 µM | HOP-62 > 378 µM | Malme-3M > 378 µM | U-251 > 378 µM | NCI-H522 > 378 µM | NCI-H460 > 378 µM | EKVX > 378 µM

Nc1nc2c(nnn2C2C=C(CO)C(O)C2O)c(=O)[nH]1 (centres undefined)
inactive: SF-268 > 100 µM | OVCAR-3 > 100 µM | HOP-92 > 100 µM | OVCAR-5 > 100 µM | SK-MEL-2 24.2 µM | IGROV-1 > 100 µM | SF-295 > 100 µM | HOP-62 > 100 µM | Malme-3M 95.7 µM | M14 > 100 µM | U-251 > 100 µM | NCI-H522 > 100 µM | NCI-H460 > 100 µM | UO-31 > 100 µM | EKVX > 100 µM | SNB-75 > 100 µM

CCc1cccc(CC)c1NC(=O)/C(Cl)=C(/Cl)C(=O)O
inactive: SF-268 40.3 µM | OVCAR-3 32.8 µM | HOP-92 21.7 µM | OVCAR-5 > 100 µM | SK-MEL-2 > 100 µM | IGROV-1 32.2 µM | SF-295 > 100 µM | HOP-62 > 100 µM | Malme-3M 19 µM | M14 17.1 µM | U-251 > 58.2 µM | NCI-H522 10.2 µM | NCI-H460 > 100 µM | UO-31 32.4 µM | EKVX > 56.6 µM | SNB-75 43.9 µM

Oc1ncnc2c1CCCN2
inactive: SF-268 > 100 µM | OVCAR-3 > 100 µM | HOP-92 > 100 µM | OVCAR-5 > 100 µM | SK-MEL-2 > 100 µM | IGROV-1 > 100 µM | SF-295 > 100 µM | HOP-62 > 100 µM | Malme-3M > 100 µM | M14 > 100 µM | U-251 > 100 µM | NCI-H522 > 100 µM | UO-31 > 100 µM | EKVX > 100 µM | SNB-75 > 100 µM

CC(C)(Oc1ccc2c(=O)cc(-c3ccccc3)oc2c1)C(=O)Nc1c(Cl)cccc1Cl
inactive: SF-268 > 100 µM | OVCAR-3 > 100 µM | HOP-92 20.1 µM | OVCAR-5 > 100 µM | SK-MEL-2 > 100 µM | IGROV-1 > 100 µM | SF-295 > 100 µM | HOP-62 > 100 µM | Malme-3M > 100 µM | M14 > 100 µM | U-251 > 100 µM | NCI-H522 38 µM | NCI-H460 > 100 µM | UO-31 9.66 µM | EKVX > 100 µM

CC1=C(C(=O)Nc2ccc([N+](=O)[O-])cc2)C(c2ccc(N(C)C)cc2)C(C(=O)Nc2ccc([N+](=O)[O-])cc2)=C(C)N1
inactive: SF-268 23.8 µM | OVCAR-3 16 µM | HOP-92 12.1 µM | OVCAR-5 23.2 µM | SK-MEL-2 13.7 µM | IGROV-1 19.1 µM | SF-295 27.5 µM | HOP-62 12.6 µM | Malme-3M 23.3 µM | M14 16.9 µM | U-251 21.9 µM | NCI-H522 11 µM | NCI-H460 17.4 µM | UO-31 21.5 µM | EKVX 25.4 µM | SNB-75 13.7 µM

Cc1ccc(Nc2ccc(Nc3ccc(C)cc3)c3c2C(=O)c2c(O)ccc(O)c2C3=O)cc1
inactive: SF-268 > 100 µM | OVCAR-3 70.5 µM | HOP-92 > 100 µM | OVCAR-5 > 100 µM | SK-MEL-2 > 100 µM | IGROV-1 > 100 µM | SF-295 > 100 µM | HOP-62 > 100 µM | Malme-3M > 100 µM | M14 > 100 µM | U-251 > 100 µM | NCI-H522 47.8 µM | NCI-H460 > 100 µM | UO-31 > 100 µM | EKVX > 100 µM | SNB-75 68.4 µM

O=C1CCC2SC1CCC2=O
inactive: SF-268 > 100 µM | OVCAR-3 > 100 µM | HOP-92 > 100 µM | OVCAR-5 > 100 µM | SK-MEL-2 > 100 µM | IGROV-1 > 100 µM | SF-295 > 100 µM | HOP-62 > 100 µM | Malme-3M > 100 µM | M14 > 100 µM | U-251 > 100 µM | NCI-H522 > 100 µM | NCI-H460 > 100 µM | UO-31 > 100 µM | DU-145 > 100 µM | EKVX > 100 µM | SNB-75 > 100 µM

O=c1cc(CSc2c(-c3ccccc3)c(=O)n(-c3ccccc3)c(=S)n2-c2ccccc2)[nH]c(=O)[nH]1
inactive: SF-268 > 100 µM | OVCAR-3 > 100 µM | OVCAR-5 > 100 µM | MDA-N > 100 µM | SK-MEL-2 > 100 µM | IGROV-1 > 100 µM | T47D > 100 µM | HOP-62 > 100 µM | M14 > 100 µM | U-251 > 100 µM | NCI-H460 > 100 µM | UO-31 > 100 µM | DU-145 > 100 µM | EKVX > 100 µM | SNB-75 > 100 µM
